According to patent US20240174603A1 (Rappta Therapeutics Oy, priority 2021, published 2024):

System: LNCaP cells
Assay: LNCaP cell viability assay (MTS)
Type: cell-based
Details: Homo sapiens, LNCaP cell line, 48 hours
Procedure: LNCaP cell line was used for the cell viability assay. LNCaP cells were plated in 96-well plates at a density of 5000 cells per well. After 24 hours of plating, the cells were treated with increasing doses of compound (e.g., compounds 1-269) ranging from 1 μM to 80 μM. Relative cell numbers were analyzed after 48 hours using 3-(4,5-dimethylthiazol-2-yl)-5-(3-carboxymethoxyphenyl)-2-(4-sulfophenyl)-2H-tetrazolium (MTS) assay (Promega) according to the manufacturer's instructions.
The cell viability data was analyzed with GraphPad Prism software. The values were log transformed and analyzed with non-linear regression (curve-fit) using log(inhibitor) vs. response-variable slope (four parameters) and constraining the bottom to equal zero. Unless otherwise indicated, the GI50 values provided in Table 113 correspond to the LNCaP cell viability assays.

Row | SMILES | GI50
1 | CN(C)CC(NS(=O)(=O)c1ccc([N+](=O)[O-])c(OC(F)(F)F)c1)c1ccc(Cl)c(Cl)c1 (stereo not shown) [Compound 222, N-(1-(3,4-dichlorophenyl)-2-(dimethylamino)ethyl)-4-nitro-3-(trifluoromethoxy)benzenesulfonamide] | 1.34 µM

Same assay, conditions: Homo sapiens, LNCaP, 48 h, LNCaP cell line

Row | SMILES | GI50
2 | O=S(=O)(NCCCOCCOCc1ccccc1)c1ccc(OC(F)(F)F)cc1 [Compound 89, N-(3-(2-(benzyloxy)ethoxy)propyl)-4-(trifluoromethoxy)benzenesulfonamide] | 48 µM
3 | CC(C)CC(NS(=O)(=O)c1ccc(OC(F)(F)F)cc1)C(=O)Nc1nccs1 (stereo not shown) [Compound 109, 4-methyl-N-(thiazol-2-yl)-2-((4-(trifluoromethoxy)phenyl)sulfonamido)pentanamide] | 25 µM
4 | Cc1cccc(C(CN(C)C)NS(=O)(=O)c2ccc(OC(F)(F)F)cc2)c1 (stereo not shown) [Compound 119, N-(2-(dimethylamino)-1-(m-tolyl)ethyl)-4-(trifluoromethoxy)benzenesulfonamide] | 48.5 µM
5 | O=S(=O)(NC(c1ccc(Cl)cc1)C1CCCC1)c1ccc(OC(F)(F)F)cc1 (stereo not shown) [Compound 86, N-((4-chlorophenyl)(cyclopentyl)methyl)-4-(trifluoromethoxy)benzenesulfonamide] | 75 µM
6 | O=S(=O)(NCC1(c2c(Cl)cccc2Cl)CCC1)c1ccc(OC(F)(F)F)cc1 [Compound 56, N-((1-(2,6-dichlorophenyl)cyclobutyl)methyl)-4-(trifluoromethoxy)benzenesulfonamide] | 30 µM
7 | O=S(=O)(NC(CC1CC1)c1ccc(F)cc1Br)c1ccc(OC(F)(F)F)cc1 (single isomer, unassigned) [Compound 142a, N-(1-(2-bromo-4-fluorophenyl)-2-cyclopropylethyl)-4-(trifluoromethoxy)benzenesulfonamide] | 80 µM
8 | CN(C)CC(NS(=O)(=O)c1ccc(Oc2ccccc2)cc1)c1ccc(Cl)c(Cl)c1 (single isomer, unassigned) [Compound 170, N-(1-(3,4-dichlorophenyl)-2-(dimethylamino)ethyl)-4-phenoxybenzenesulfonamide] | 13.3 µM
9 | Cc1ccc(C(CN(C)C)NS(=O)(=O)c2ccc(OC(F)(F)F)cc2)cc1 (stereo not shown) [Compound 123, N-(2-(dimethylamino)-1-(p-tolyl)ethyl)-4-(trifluoromethoxy)benzenesulfonamide] | 45.2 µM
10 | CC1(C)CC1(CNS(=O)(=O)c1ccc(OC(F)(F)F)cc1)c1ccccc1 (stereo not shown) [Compound 230, N-((2,2-dimethyl-1-phenylcyclopropyl)methyl)-4-(trifluoromethoxy)benzenesulfonamide] | 37.3 µM
11 | CCCCN(CCNS(=O)(=O)c1ccc(OC(F)(F)F)cc1)Cc1cccc(Cl)c1 [Compound 54, N-(2-(butyl(3-chlorobenzyl)amino)ethyl)-4-(trifluoromethoxy)benzenesulfonamide] | 33 µM
12 | Cc1cccc(CC(CO)NS(=O)(=O)c2ccc(OC(F)(F)F)cc2)c1 (stereo not shown) [Compound 9, N-(1-hydroxy-3-(m-tolyl)propan-2-yl)-4-(trifluoromethoxy)benzenesulfonamide] | 24.1 µM
13 | CN(C)CC(NS(=O)(=O)c1ccc(-c2ccccc2)cc1)c1ccc(Cl)c(Cl)c1 (single isomer, unassigned) [Compound 195, N-(1-(3,4-dichlorophenyl)-2-(dimethylamino)ethyl)-[1,1′-biphenyl]-4-sulfonamide] | 11.9 µM
14 | O=S(=O)(NCC1(c2cccc(C(F)(F)F)c2)CCCC1)c1ccc(OC(F)(F)F)cc1 [Compound 262, 4-(trifluoromethoxy)-N-((1-(3-(trifluoromethyl)phenyl)cyclopentyl)methyl)benzenesulfonamide] | 63.1 µM
15 | Cc1ccc(C(NS(=O)(=O)c2ccc(OC(F)(F)F)cc2)C(C)S(C)(=O)=O)cc1 (stereo not shown) [Compound 104, N-(2-(methylsulfonyl)-1-(p-tolyl)propyl)-4-(trifluoromethoxy)benzenesulfonamide] | 49 µM
16 | CN(C)CC(NS(=O)(=O)c1ccc(OCC2CC2)cc1)c1ccc(Cl)c(Cl)c1 (stereo not shown) [Compound 207, 4-(cyclopropylmethoxy)-N-(1-(3,4-dichlorophenyl)-2-(dimethylamino)ethyl)benzenesulfonamide] | 21.8 µM
17 | O=S(=O)(NCC1(c2ccc(Cl)cc2)CC1)c1ccc(OC(F)(F)F)cc1 [Compound 228, N-((1-(4-chlorophenyl)cyclopropyl)methyl)-4-(trifluoromethoxy)benzenesulfonamide] | 59.9 µM
18 | CCOc1ccc(Cl)cc1CCNS(=O)(=O)c1ccc(OC(F)(F)F)cc1 [Compound 29, N-(5-chloro-2-ethoxyphenethyl)-4-(trifluoromethoxy)benzenesulfonamide] | 38.3 µM
19 | CNS(=O)(=NC(CN(C)C)c1ccc(Cl)c(Cl)c1)c1ccc(OC(F)(F)F)cc1 (stereo not shown) [Compound 127, N′-(1-(3,4-dichlorophenyl)-2-(dimethylamino)ethyl)-N-methyl-4-(trifluoromethoxy)benzenesulfonimidamide] | 51.9 µM

Row | SMILES | GI50
20 | CN(C)CC(NS(=O)(=O)c1ccc(C(F)(F)F)cc1)c1ccc(Cl)c(Cl)c1 (stereo not shown) [Compound 161, N-(1-(3,4-dichlorophenyl)-2-(dimethylamino)ethyl)-4-(trifluoromethyl)benzenesulfonamide] | 25.4 µM
21 | O=S(=O)(NCCNS(=O)(=O)c1ccc(F)c(Cl)c1)c1ccc(OC(F)(F)F)cc1 [Compound 96, 3-chloro-4-fluoro-N-(2-((4-(trifluoromethoxy)phenyl)sulfonamido)ethyl)benzenesulfonamide] | 31 µM
22 | CCC(NS(=O)(=O)c1ccc(OC(F)(F)F)cc1)(C(=O)OC)c1ccccc1 (stereo not shown) [Compound 107, Methyl 2-phenyl-2-((4-(trifluoromethoxy)phenyl)sulfonamido)butanoate] | 69 µM
23 | CN(C)CC(NS(=O)(=O)c1ccc(Cl)c(F)c1)c1ccc(Cl)c(Cl)c1 (stereo not shown) [Compound 217, 4-chloro-N-(1-(3,4-dichlorophenyl)-2-(dimethylamino)ethyl)-3-fluorobenzenesulfonamide] | 49.5 µM
24 | CCOC(=O)CC(NS(=O)(=O)c1ccc(OC(F)(F)F)cc1)c1cccc(C(F)(F)F)c1 (stereo not shown) [Compound 94, Ethyl 3-((4-(trifluoromethoxy)phenyl)sulfonamido)-3-(3-(trifluoromethyl)phenyl)propanoate] | 25 µM
25 | CCCCC(NS(=O)(=O)c1ccc(OC(F)(F)F)cc1)C(=O)OC(C)(C)C (stereo not shown) [Compound 5, Tert-butyl 2-((4-(trifluoromethoxy)phenyl)sulfonamido)hexanoate] | 39.5 µM
26 | CN(C)CC(NS(=O)(=O)c1cccc2ccccc12)c1ccc(Cl)c(Cl)c1 (stereo not shown) [Compound 145, N-(1-(3,4-dichlorophenyl)-2-(dimethylamino)ethyl)naphthalene-1-sulfonamide] | 21.7 µM
27 | CN(C)CC(NS(=N)(=O)c1ccc(OC(F)(F)F)cc1)c1ccc(Cl)c(Cl)c1 (single isomer, unassigned) [Compound 165a, N-(1-(3,4-dichlorophenyl)-2-(dimethylamino)ethyl)-4-(trifluoromethoxy)benzenesulfonimidamide] | 46.3 µM
28 | CN(C)CC(NS(=O)(=O)c1ccc(Oc2ccc(C(F)(F)F)cc2)cc1)c1cccc(C(F)(F)F)c1 (stereo not shown) [Compound 193, N-(2-(dimethylamino)-1-(3-(trifluoromethyl)phenyl)ethyl)-4-(4-(trifluoromethyl)phenoxy)benzenesulfonamide] | 19.6 µM
29 | CN(C)CC(NS(=O)(=O)c1ccc(NC2CCCC2)cc1)c1ccc(Cl)c(Cl)c1 (stereo not shown) [Compound 251, 4-(cyclopentylamino)-N-(1-(3,4-dichlorophenyl)-2-(dimethylamino)ethyl)benzenesulfonamide] | 22.4 µM
30 | CN(C)CC(NS(=O)(=O)c1ccc(OC(F)(F)F)cc1)c1ccc(Cl)cc1 (stereo not shown) [Compound 125, N-(1-(4-chlorophenyl)-2-(dimethylamino)ethyl)-4-(trifluoromethoxy)benzenesulfonamide] | 57 µM
31 | CCOC(=O)C(Cc1ccccc1Cl)NS(=O)(=O)c1ccc(OC(F)(F)F)cc1 (stereo not shown) [Compound 45, Ethyl 3-(2-chlorophenyl)-2-((4-(trifluoromethoxy)phenyl)sulfonamido)propanoate] | 46 µM
32 | Cc1cccc(S(=O)(=O)NC(CN(C)C)c2ccc(Cl)c(Cl)c2)c1 (stereo not shown) [Compound 132, N-(1-(3,4-dichlorophenyl)-2-(dimethylamino)ethyl)-3-methylbenzenesulfonamide] | 40.5 µM
33 | CN(C)CC1(CNS(=O)(=O)c2ccc(OC(F)(F)F)cc2)CC1 [Compound 98, N-((1-((dimethylamino)methyl)cyclopropyl)methyl)-4-(trifluoromethoxy)benzenesulfonamide] | 29 µM
34 | CN(C)CC(NS(=O)(=O)c1ccc(OC(F)(F)F)c([N+](=O)[O-])c1)c1cccc(C(F)(F)F)c1 (stereo not shown) [Compound 205, N-(2-(dimethylamino)-1-(3-(trifluoromethyl)phenyl)ethyl)-3-nitro-4-(trifluoromethoxy)benzenesulfonamide] | 2.27 µM
35 | O=S(=O)(NCCC(O)(C(F)(F)F)C(F)(F)F)c1ccc(OC(F)(F)F)cc1 [Compound 50, N-(4,4,4-trifluoro-3-hydroxy-3-(trifluoromethyl)butyl)-4-(trifluoromethoxy)benzenesulfonamide] | 71 µM
36 | O=S(=O)(NC(CN1CCOCC1)c1ccc(Cl)c(Cl)c1)c1ccc(OC(F)(F)F)cc1 (stereo not shown) [Compound 169, N-(1-(3,4-dichlorophenyl)-2-morpholinoethyl)-4-(trifluoromethoxy)benzenesulfonamide] | 53.7 µM

Same assay, conditions: LNCaP cell line, 48 hours

Row | SMILES | GI50
37 | CCCc1ccc(S(=O)(=O)NC(CN(C)C)c2ccc(Cl)c(Cl)c2)cc1 (single isomer, unassigned) [Compound 200, N-(1-(3,4-dichlorophenyl)-2-(dimethylamino)ethyl)-4-propylbenzenesulfonamide] | 17.8 µM
